Source: US20140057941A1, “Methods For Increasing Mean Corpuscular Volume” (priority 2011, published 2014)

Legend:
Assay type in all cases: in vivo
[1] = system: human subjects with stage 3 or stage 4 chronic kidney disease; test: MCV in stage 3 and stage 4 chronic kidney disease patients not receiving dialysis, fixed dose, 17 weeks; details: fixed dose 50 mg or 100 mg twice weekly for 17 weeks, dose adjustments from week 5; stage 3/4 CKD not on dialysis
Procedure: In another set of experiments, the effect of compound of the present invention on MCV was determined in human subjects with stage 3 and stage 4 chronic kidney disease patients (eGFR<60 ml/min) as follows. Subjects with stage 3 or stage 4 chronic kidney disease not receiving dialysis were administered Compound A at a fixed dose of either 50 mg or 100 mg twice weekly for a period of 17 weeks. Dose adjustments were permitted from week 5 onward to correct and maintain subjects to a target hemoglobin range; however, doses were not allowed to exceed 2.2 mg/kg per dose. MCV values were measured weekly.

[2] = system: human subjects with end-stage renal disease; test: Mean corpuscular volume (MCV) in human subjects with end-stage renal disease on hemodialysis, 6 weeks TIW, no IV iron; details: ESRD; for Mean Change from Baseline MCV at Day 43 (6 weeks) of Treatment: no IV iron; for MCV response following administration for six weeks (Table 1, in words): TIW for 6 weeks, Compound A 1.0, 1.5, 2.0 mg/kg or standard of care epoetin alfa; for Change from baseline of mean MCV over time during the 6 week treatment period (FIG. 1): TIW, Compound A 1.0, 1.5 or 2.0 mg/kg or epoetin alfa
Procedure: The effect of a compound of the present invention on MCV was determined in human subjects with end-stage renal disease as follows. Subjects had been receiving stable maintenance hemodialysis for at least 4 months prior to the initiation of the present study. Additionally, subjects had been maintained on standard of care stable doses of epoetin alfa for the treatment of anemia prior to initiation of the study described herein.
In order to examine differences in the MCV response in subjects treated with a compound of the invention compared to the MCV response in subjects treated with epoetin alpha (the current standard of care), all IV iron supplementation was halted two weeks prior to treatment initiation. Administration of oral iron was allowed.
[…] Baseline MCV levels were determined prior to treatment (mean of two screening period measurements with the Day 1 measurement). MCV levels were measured weekly throughout the 6-week study period.

[3] = system: human subjects with end-stage renal disease; test: Mean hemoglobin levels in human subjects with end-stage renal disease, 6 week treatment; details: TIW; Compound A 1.5 mg/kg and 2.0 mg/kg or epoetin alfa; ESRD
[4] = system: human subjects with stage 3 or stage 4 chronic kidney disease; test: MCV in stage 3 and stage 4 chronic kidney disease patients, 4 weeks; details: stage 3/4 CKD
Procedure: In another series of experiments, the effect of a compound of the present invention on MCV was determined in stage 3 and stage 4 chronic kidney disease patients ([…]) as follows. Subjects with stage 3 or stage 4 chronic kidney disease were administered placebo or Compound A (1.5 mg/kg or 2.0 mg/kg) twice or thrice weekly for 4 weeks. MCV values were measured weekly.

[5] = system: human patients, particularly having chronic kidney disease; test: Overall safety and efficacy of tested doses in human patients; details: 0.7 to 2.5 mg/kg administered TIW, BIW, or QW
Text: In particular embodiments, the present invention provides an efficacious therapeutic compound for treating a human subject having reduced mean corpuscular volume (MCV). In one embodiment, the invention comprises the compound [(4-hydroxy-1-methyl-7-phenoxy-isoquinoline-3-carbonyl)-amino]-acetic acid for use in methods of increasing mean corpuscular volume (MCV) in a human subject.

Compound	Mean MCV over time (FIG. 5) [1]	Mean Change from Baseline MCV at Day 43 (6 weeks) of Treatment ([2]; 1 mg/kg TIW, N = 10)	Mean increase in MCV over baseline after 6 weeks of treatment ([2]; 1.3 mg/kg TIW, N=5) [fL]	Mean Change from Baseline MCV at Day 43 (6 weeks) of Treatment ([2]; 1.5 mg/kg TIW, N = 9)	Mean increase in MCV over baseline after 6 weeks of treatment ([2]; 1.8 mg/kg TIW, N=12) [fL]	Mean Change from Baseline MCV at Day 43 (6 weeks) of Treatment ([2]; 2.0 mg/kg TIW, N = 9)	MCV response following administration for six weeks (Table 1, in words) [2]	Change from baseline of mean MCV over time during the 6 week treatment period (FIG. 1) [2]	Changes in mean hemoglobin levels during the 6 week treatment period (FIG. 2) [3]	Mean MCV over time (FIG. 3) ([4]; 1.5 mg/kg or 2.0 mg/kg twice or thrice weekly for 4 weeks)	Mean change from baseline MCV at Day 22 (FIG. 4) ([4]; 1.5 mg/kg or 2.0 mg/kg twice or thrice weekly, increase)	Efficacy of tested doses (increases in MCV) [5]	Safety of tested doses [5]	Mean Change from Baseline MCV at Day 43 (6 weeks) of Treatment ([2]; standard of care doses TIW, N = 10) [fL]
Cc1nc(C(=O)NCC(=O)O)c(O)c2ccc(Oc3ccccc3)cc12 [Compound A, [(4 hydroxy-1-methyl-7-phenoxy-isoquinoline-3-carbonyl)-amino]-acetic acid]	mean MCV initially increased and then stabilized over time	+0.90 fL	2.03	+1.46 fL	2.27	+2.50 fL	MCV increased in a dose-dependent manner	resulted in an increase in mean MCV over time	time-dependent increase in mean hemoglobin levels	mean MCV increased over time	greater than 3 fL	effective	safe	–
Epoetin alfa: erythropoiesis-stimulating agent; current standard of care for anemia, used as control [reference compound]	–	–	–	–	–	–	showed decreases in MCV	no increase in mean MCV occurred	did not result in an increase hemoglobin levels	–	–	–	–	-0.12
